Here are results for one compound from patent US20050118262A1, “Controlled release formulation” (priority 2003, published 2005).

The nature of the data set: Water solubility of selodenoson. It is filed as physicochemical.

Turning to `CCNC(=O)[C@H]1O[C@@H](n2cnc3c(NC4CCCC4)ncnc32)[C@H](O)[C@@H]1O` [selodenoson, N^6-cyclopentyl-5′-(N-ethyl)carboxamidoadenosine], the solubility in water result (water) was “soluble in water”. Besides, the “solubility in water under acidic conditions” value (water under acidic conditions) is given as “highly soluble in water under acidic conditions”.
